Test results from patent US20120183660A1, “ISOMANNIDE DERIVATIVES AND THEIR USE AS TASTANTS” (Senomyx, Inc., priority 2009, published 2012).

Tested on: un-induced I-17 cells
Experiment: FLIPR assay on un-induced I-17 cells (no mifepristone induction of receptor expression)
Assay type: cell-based
Details: compounds at 10 μM—or three times the maximum stimulation used in the dose-response analysis
Description: In order to determine the dependency of hT1R1/hT1R3 for the cell response to different stimuli, selected compounds were subjected to a similar analysis on I-17 cells that had not been induced for receptor expression with mifepristone (designated as un-induced I-17 cells). […] Compounds were presented to un-induced umami cells at […]—or three times the maximum stimulation used in the dose-response analysis.

N[C@@H](CCC(=O)O)C(=O)[O-].[Na+] [monosodium glutamate]
functional response in the FLIPR assay on un-induced umami cells: do not show any functional response
